# “Also recorded” adds a separate entry of the source.
# Key:
# PAK [1] = experiment: Nitric oxide pretreatment with planktonic bacteria; type: cell-based, Pseudomonas aeruginosa; conditions: NO-pretreatment 25% MIC 4 h
# Protocol: After exposure, wells were serially diluted in sterile MilliQ water and spiral plated on TSA. Viability was assessed by colony counting.
# [2] = test system: P. aeruginosa strain K (PAK); experiment: Checkerboard assay of antibiotic combinations with COS/NO; type: cell-based, Pseudomonas aeruginosa; conditions: antibiotic in combination with COS/NO, 24 h
# Protocol: Frozen stocks of bacteria were reconstituted in TSB (3 mL) and cultured overnight. The overnight cultures of bacteria (3 mL) were inoculated into fresh TSB (30 mL) and grown to 10^8 CFU/mL. […] Inhibition was assessed with the resazurin assay and the minimum inhibitory concentration (MIC) was defined as the lowest concentration of antibacterial agent required to prevent the reduction of resazurin (i.e., color change from blue to pink).
# Mol. Pharm. 7, 2289-2296 (2010)]. Briefly, bacteria at a final concentration of 10^6 CFU/mL were incubated with an array of antimicrobial combinations in TSB for 24 h at 37° C. The highest concentration for each antimicrobial tested was 2 × MIC. […] The fractional […] concentration index (ΣFIC) was calculated using Equation 1, reported by Elion et al. [Elion, G. B., Singer, S. & Hitchings, G. H. Antagonists of Nucleic Acid Derivatives: VIII. Synergism in combinations of biochemically related antimetabolites. […] Checkerboard assays were conducted in at least duplicate for each bacterial strain and for each drug combination.
# Characterization of the combinations was performed using the following criteria based on ΣFIC values: < 0.25 is highly synergistic; ≤ 0.5 is synergistic; ≤ 1 is additive; ≤ 4 is indifferent; > 4 is antagonistic.
# [3] = test system: PAK, ATCC MRSA, ATCC BCC, and AR 542; experiment: NPN uptake assay (outer membrane permeability); type: cell-based; conditions: exposure to COS/NO, FIG. 1
# Protocol: The outer membrane permeability of PAK, ATCC MRSA, ATCC BCC, and AR 542 was assessed with an NPN assay modified from Helander and coworkers [Helander, I. M. & Mattila-Sandholm, T. Fluorometric assessment of Gram-negative bacterial permeabilization. J. Appl. Microbiol. 88, 213-219 (2000)]. Briefly, a stock 4560 µM NPN in acetone solution was prepared fresh each day and diluted to 456 µM in PBS pH 7.4. Bacteria were cultured to a concentration of 10^8 CFU/mL in TSB, collected via centrifugation (5,000 × g for 5 min), and resuspended in PBS. Bacteria were added to COS/NO or DMSO in 1-dram vials and incubated at 37° C. with shaking. After 10 min of incubation, a portion of the exposure solution (196 µL) was removed and added to a black well plate, and 4 µL NPN (456 µM in PBS) was added. Fluorescence was immediately measured at excitation and emission wavelengths of 350 nm and 460 nm, respectively. The background NPN fluorescence in buffer was subtracted.
# PAK [4] = experiment: Serial passaging resistance assay; type: cell-based, Pseudomonas aeruginosa
# Protocol: (§1) Bacteria at a final concentration of 10^6 CFU/mL in TSB were incubated with serial dilutions of COS/NO and/or tobramycin for 24 h. Growth was assessed by measuring absorbance at 600 nm. The wells that had the highest concentration of test agent and an OD600 corresponding to more than 10^8 CFU/mL were diluted to 10^6 cfu/mL in TSB and incubated with fresh solutions of COS/NO or tobramycin for 24 h. A single passage was defined as one exposure, incubation, and subsequent dilution. Bacteria were passaged for up to 70 days.
# ATCC MRSA = experiment: Serial passaging resistance assay; type: cell-based, Methicillin-resistant S. aureus
# Protocol: as §1
# P. aeruginosa biofilms = experiment: Biofilm pretreatment with nitric oxide, all tested biofilms; type: cell-based; conditions: P. aeruginosa biofilms, COS/NO at 25% MBEC
# Protocol: Bacteria were cultured to a concentration of 10^8 CFU/mL in TSB and diluted to 10^6 CFU/mL in 200 µL TSB in a 96 well plate. Plates were incubated with shaking for 3 days until a non-surface attached viscous aggregate formed that was easily separated from growth medium. Biofilms (100 µL) were removed, gently injected into PBS (200 µL) to remove loosely adhered planktonic cells, and added to a sterile 96 well plate. To the wells, PBS or test agent dissolved in PBS (100 µL) was added and incubated with shaking for 24 h. The biofilm (100 µL) was removed from the well plate, added to 900 µL sterile MilliQ water, and disrupted with pipetting and vortexing. Disrupted biofilms were serially diluted and spiral plated on TSA. Viability was assessed with colony counting. The minimum biofilm eradication concentration (MBEC) was defined as the lowest concentration of test agent required to reduce viability by 5-log (i.e., 10^8 to 10^3 CFU/mL).
# The biofilm was then removed from its 96 well plate, added to a new 96 well plate containing tobramycin dissolved in PBS (100 µL), and incubated for 20 h. The biofilm was disrupted in 900 µL sterile MilliQ water with pipetting and vortexing, serially diluted, and spiral plated on TSA. Viability was assessed with colony counting.
molecule,measurement,setting,value
C[C@H]1[C@H](NC(=O)/C(=N\OC(C)(C)C(=O)O)c2csc(N)n2)C(=O)N1S(=O)(=O)O [Aztreonam],Classification,PAK [1]; antibiotic 2 µg/mL,Synergistic
same,Log Difference in bacteria viability with vs without NO-pretreatment,PAK [1]; antibiotic 2 µg/mL,5.11 log
same,Classification (ΣFIC),[2],Additive
same,ΣFIC (median fractional inhibitory concentration index),[2],0.75
CC(C)(O/N=C(\C(=O)N[C@@H]1C(=O)N2C(C(=O)[O-])=C(C[n+]3ccccc3)CS[C@H]12)c1csc(N)n1)C(=O)O [Ceftazidime],Classification (ΣFIC),[2],Additive
same,ΣFIC (median fractional inhibitory concentration index),[2],1
C[C@@H](O)[C@H]1C(=O)N2C(C(=O)O)=C(S[C@@H]3CN[C@H](C(=O)N(C)C)C3)[C@H](C)[C@H]12 [Meropenem],Classification,PAK [1]; antibiotic 2 µg/mL,Synergistic
same,Log Difference in bacteria viability with vs without NO-pretreatment,PAK [1]; antibiotic 2 µg/mL,3.22 log
same,Classification (ΣFIC),[2],Synergistic
same,ΣFIC (median fractional inhibitory concentration index),[2],0.5
"[N]=O [NO, nitric oxide]",uptake of the hydrophobic fluorophore NPN and crystal violet dye (cell permeability),[3],increased uptake
same,MICn,"PAK [4]; PAK, after n = 70 passages",96 µg/mL
same,MIC,"PAK [4]; Pseudomonas aeruginosa, read-out: MIC0",96 µg/mL
same,MICn,"ATCC MRSA; ATCC MRSA, after n = 30 passages",384 µg/mL
same,MIC,"ATCC MRSA; Staphylococcus aureus, MRSA, read-out: MIC0",384 µg/mL
same,biofilm viability after NO-pretreatment alone,P. aeruginosa biofilms,does not significantly affect; also recorded: does not significantly reduce
Colistin,Log Difference in bacteria viability with vs without NO-pretreatment,PAK [1]; antibiotic […],5.13 log
same,Classification (ΣFIC),[2],Synergistic
same,ΣFIC (median fractional inhibitory concentration index),[2],0.5

# — patent US20230082968A1, “EXOGENOUS NITRIC OXIDE FOR IMPROVED SUSCEPTIBILITY AND LOWERED ANTIBIOTIC RESISTANCE IN RESISTANT RESPIRATORY BACTERIA” (The University of North Carolina at Chapel Hill, priority 2020, published 2023)
